Experimental data reported in patent publication US8242274B2, “Triazolopyridine kinase inhibitors useful for the treatment of degenerative and inflammatory diseases” (Galapagos NV, priority 2008, dated 2012).

Tested on: pSTAT1(2)-luciferase reporter
Assay: JAK-STAT signalling assay (HeLa cells, OSM trigger)
Type: cell-based
Conditions: human OSM 33 ng/mL
Description: HeLa cells were maintained in Dulbecco's Modified Eagle's Medium (DMEM) containing 10% heat inactivated fetal calf serum, 100 U/mL penicillin and 100 μg/mL streptomycin. HeLa cells were used at 70% confluence for transfection. 20,000 cells in 87 μL cell culture medium were transiently transfected with 40 ng pSTAT1(2)-luciferase reporter (Panomics), 8 ng of LacZ reporter as internal control reporter and 52 ng of pBSK using 0.32 μL Jet-PEI (Polyplus) as transfection reagent per well in 96-well plate format. After overnight incubation at 37° C., 10% CO2, transfection medium was removed. 75 μL of DMEM+1.5% heat inactivated fetal calf serum was added. 15 μL of compound at 6.7× concentration was added for 60 min and then 10 μL of human OSM (Peprotech) at 33 ng/mL final concentration. […]
40 μL of cell lysate was used to read β-galactosidase activity by adding 180 μL βGal solution (30 μl ONPG 4 mg/mL+150 μL β-Galactosidase buffer (0.06 M Na2HPO4, 0.04 M NaH2PO4, 1 mM MgCl2)) for 20 min. The reaction was stopped by addition of 50 μL Na2CO3 1 M. Absorbance was read at 405 nm.
Luciferase activity was measured using 40 μL cell lysate plus 40 μl of Steadylite® as described by the manufacturer (Perkin Elmer), on the Envision (Perkin Elmer). […]

Compound | EC50
CC(=O)Nc1ccc(COc2ccc(-c3cccc4nc(NC(=O)C5CC5)nn34)cc2)cc1 [Compound 92, N-(5-(4-(4-acetamidobenzyloxy)phenyl)-[1,2,4]triazolo[1,5-a]pyridin-2-yl)cyclopropanecarboxamide] | > 1000 nM
N#Cc1ccc(COc2ccc(-c3cccc4nc(NC(=O)C5CC5)nn34)cc2)cn1 [Compound 176, N-(5-(4-((6-cyanopyridin-3-yl)methoxy)phenyl)-[1,2,4]triazolo[1,5-a]pyridin-2-yl)cyclopropanecarboxamide] | 1 to 100 nM
